Experimental data published in patent US12435044B2, “Pyridazinone herbicides and pyridazinone intermediates used to prepare a herbicide” (FMC Corporation, priority 2018, dated 2025).

What was measured:
Assay in all cases: Test C pre-/postemergence greenhouse test
Type in all cases: in vivo
Conditions in all cases: scale 0 to 100
[1] = system: blackgrass (Alopecurus myosuroides)
How it was run: (§1)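 Visual 0–100 rating (0 = no effect, 100 = complete control) against controls, 13 to 21 d after treatment in greenhouse. Preemergence: seeds in silt loam soil. Postemergence: plants at 1- to 4-leaf stage (2 to 18 cm) in peat-based medium; compounds in surfactant-containing solvent mixture.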

[2] = system: lambsquarters (Chenopodium album)
How it was run: as §1

[3] = system: nutsedge, yellow (Cyperus esculentus)
How it was run: as §1

oat, wild (Avena fatua) = system: oat, wild (Avena fatua)
How it was run: as §1

[4] = system: pigweed, palmer (Amaranthus palmeri)
How it was run: as §1

[5] = system: poinsettia, wild (Euphorbia heterophylla)
How it was run: as §1

[6] = system: windgrass (Apera spica-venti)
How it was run: as §1

Q: For `Cc1ccc2ccc(Cl)cc2c1-c1c(O)c(Cl)nn(C)c1=O` [Cpd. No. 22], which “Plant response rating, Blackgrass” value ([1]; Postemergence, 16 g ai/ha) is on record?
A: 70

Q: What about the “Plant response rating, Blackgrass” value ([1]; Postemergence, 31 g ai/ha) of the same compound?
A: 85

Q: What about the “Plant response rating, Blackgrass” value ([1]; Postemergence, 62 g ai/ha) of the same compound?
A: 90

Q: What about the “Plant response rating, Blackgrass” value ([1]; Postemergence, 125 g ai/ha) of the same compound?
A: 100

Q: And the “Plant response rating, Blackgrass” value ([1]; Preemergence, 31 g ai/ha)?
A: 25

Q: And the “Plant response rating, Blackgrass” value ([1]; Preemergence, 61 g ai/ha)?
A: 5

Q: And the “Plant response rating, Blackgrass” value ([1]; Preemergence, 62 g ai/ha)?
A: 30

Q: What about the “Plant response rating, Blackgrass” value ([1]; Preemergence, 125 g ai/ha) of the same compound?
A: 85

Q: What about the “Plant response rating, Lambsquarters” value ([2]; Postemergence, 16 g ai/ha) of the same compound?
A: 80

Q: What about the “Plant response rating, Lambsquarters” value ([2]; Postemergence, 31 g ai/ha) of the same compound?
A: 85

Q: What about the “Plant response rating, Lambsquarters” value ([2]; Postemergence, 62 g ai/ha) of the same compound?
A: 100

Q: And the “Plant response rating, Lambsquarters” value ([2]; Postemergence, 125 g ai/ha)?
A: 85

Q: And the “Plant response rating, Lambsquarters” value ([2]; Preemergence, 31 g ai/ha)?
A: 75

Q: What about the “Plant response rating, Lambsquarters” value ([2]; Preemergence, 61 g ai/ha) of the same compound?
A: 70

Q: And the “Plant response rating, Lambsquarters” value ([2]; Preemergence, 62 g ai/ha)?
A: 90

Q: What about the “Plant response rating, Lambsquarters” value ([2]; Preemergence, 125 g ai/ha) of the same compound?
A: 100

Q: And the “Plant response rating, Nutsedge, Yellow” value ([3]; Postemergence, 16 g ai/ha)?
A: 10

Q: And the “Plant response rating, Nutsedge, Yellow” value ([3]; Postemergence, 31 g ai/ha)?
A: 35

Q: What about the “Plant response rating, Nutsedge, Yellow” value ([3]; Postemergence, 62 g ai/ha) of the same compound?
A: 90

Q: What about the “Plant response rating, Nutsedge, Yellow” value ([3]; Postemergence, 125 g ai/ha) of the same compound?
A: 85

Q: And the “Plant response rating, Nutsedge, Yellow” value ([3]; Preemergence, 31 g ai/ha)?
A: 50

Q: And the “Plant response rating, Nutsedge, Yellow” value ([3]; Preemergence, 61 g ai/ha)?
A: 25

Q: What about the “Plant response rating, Nutsedge, Yellow” value ([3]; Preemergence, 62 g ai/ha) of the same compound?
A: 75

Q: And the “Plant response rating, Nutsedge, Yellow” value ([3]; Preemergence, 125 g ai/ha)?
A: 95

Q: What about the “Plant response rating, Oat, Wild” value (oat, wild (Avena fatua); Postemergence, 16 g ai/ha) of the same compound?
A: 98

Q: What about the “Plant response rating, Oat, Wild” value (oat, wild (Avena fatua); Postemergence, 31 g ai/ha) of the same compound?
A: 100

Q: And the “Plant response rating, Oat, Wild” value (oat, wild (Avena fatua); Postemergence, 62 g ai/ha)?
A: 100

Q: What about the “Plant response rating, Oat, Wild” value (oat, wild (Avena fatua); Postemergence, 125 g ai/ha) of the same compound?
A: 100

Q: What about the “Plant response rating, Oat, Wild” value (oat, wild (Avena fatua); Preemergence, 31 g ai/ha) of the same compound?
A: 30

Q: What about the “Plant response rating, Oat, Wild” value (oat, wild (Avena fatua); Preemergence, 61 g ai/ha) of the same compound?
A: 0

Q: What about the “Plant response rating, Oat, Wild” value (oat, wild (Avena fatua); Preemergence, 62 g ai/ha) of the same compound?
A: 45

Q: What about the “Plant response rating, Oat, Wild” value (oat, wild (Avena fatua); Preemergence, 125 g ai/ha) of the same compound?
A: 95

Q: And the “Plant response rating, Pigweed, Palmer” value ([4]; Postemergence, 16 g ai/ha)?
A: 50

Q: What about the “Plant response rating, Pigweed, Palmer” value ([4]; Postemergence, 31 g ai/ha) of the same compound?
A: 70

Q: What about the “Plant response rating, Pigweed, Palmer” value ([4]; Postemergence, 62 g ai/ha) of the same compound?
A: 70

Q: And the “Plant response rating, Pigweed, Palmer” value ([4]; Postemergence, 125 g ai/ha)?
A: 75

Q: And the “Plant response rating, Pigweed, Palmer” value ([4]; Preemergence, 31 g ai/ha)?
A: 65

Q: What about the “Plant response rating, Pigweed, Palmer” value ([4]; Preemergence, 61 g ai/ha) of the same compound?
A: 40

Q: And the “Plant response rating, Pigweed, Palmer” value ([4]; Preemergence, 62 g ai/ha)?
A: 75

Q: And the “Plant response rating, Pigweed, Palmer” value ([4]; Preemergence, 125 g ai/ha)?
A: 100

Q: And the “Plant response rating, Poinsettia, Wild” value ([5]; Postemergence, 16 g ai/ha)?
A: 25

Q: And the “Plant response rating, Poinsettia, Wild” value ([5]; Postemergence, 31 g ai/ha)?
A: 25

Q: What about the “Plant response rating, Poinsettia, Wild” value ([5]; Postemergence, 62 g ai/ha) of the same compound?
A: 40

Q: What about the “Plant response rating, Poinsettia, Wild” value ([5]; Postemergence, 125 g ai/ha) of the same compound?
A: 35

Q: What about the “Plant response rating, Poinsettia, Wild” value ([5]; Preemergence, 31 g ai/ha) of the same compound?
A: 5

Q: And the “Plant response rating, Poinsettia, Wild” value ([5]; Preemergence, 61 g ai/ha)?
A: 5

Q: What about the “Plant response rating, Poinsettia, Wild” value ([5]; Preemergence, 62 g ai/ha) of the same compound?
A: 10

Q: And the “Plant response rating, Poinsettia, Wild” value ([5]; Preemergence, 125 g ai/ha)?
A: 35

Q: And the “Plant response rating, Windgrass” value ([6]; Postemergence, 16 g ai/ha)?
A: 85

Q: What about the “Plant response rating, Windgrass” value ([6]; Postemergence, 31 g ai/ha) of the same compound?
A: 85

Q: What about the “Plant response rating, Windgrass” value ([6]; Postemergence, 62 g ai/ha) of the same compound?
A: 100

Q: And the “Plant response rating, Windgrass” value ([6]; Postemergence, 125 g ai/ha)?
A: 100

Q: And the “Plant response rating, Windgrass” value ([6]; Preemergence, 31 g ai/ha)?
A: 80

Q: What about the “Plant response rating, Windgrass” value ([6]; Preemergence, 61 g ai/ha) of the same compound?
A: 0

Q: What about the “Plant response rating, Windgrass” value ([6]; Preemergence, 62 g ai/ha) of the same compound?
A: 85

Q: What about the “Plant response rating, Windgrass” value ([6]; Preemergence, 125 g ai/ha) of the same compound?
A: 100
